{"source": "patent US6835382B2", "about": "“Ii peptide therapeutics to enhance antigen presentation” (University of Massachusetts, priority 1996, dated 2004)", "test_system": "murine E^k MHC class II allele", "assay": "antigenic peptide prepulse assay, E^k allele (fixed APC prepulsed with PGCC81-104)", "type": "cell-based", "settings": "for Activity in antigenic peptide prepulse assay, E^k (baseline = 1.0): prepulse 1.25 μM antigenic peptide; for Activity in antigenic peptide prepulse assay, E^k (baseline without AE peptide = 1.00): Table 19, prepulse 20 μM PGCC81-104", "method": "In a second type of assay, the “peptide prepulse assay”, the antigenic peptide is incubated with paraformaldehyde-fixed APC for 6 h. The APC are washed and incubated for 24 h with the AE101 series homolog and the T cell hybridoma specific for the antigenic peptide. After that incubation, an aliquot of the culture supernatant is transferred to a second culture to measure the relative degree of T hybridoma stimulation, as reflected in the effect of released interleukins on the growth of an interleukin-dependent, indicator cell line, as described above.\nThe two above described assays measure different aspects of the molecular mechanism of the AE101 series of peptides. In the “simultaneous assay”, AE101 series peptides are thought to induce the release of endogenously bound peptides and to permit the binding of the second, specific antigenic peptide which is relatively abundant in the culture fluid. The AE101 series peptides enhance antigenic peptide-specific T cell responses in simultaneous assays. In the “peptide prepulse” assay, the specific antigenic peptide becomes bound to MHC class II molecules on the surface of the fixed APC during the 6 h prepulse incubation. The effect of the AE101 series homologs is then thought to release that antigenic peptide, resulting in an apparent suppression of the immune response.\nThe AE101 series peptides are thought to contact the MHC class II molecules at a discrete site outside the antigenic peptide-binding groove. AE101 peptide binding to this “Ii-KEY” site is thought to induce a conformational change in the MHC class II molecules accelerating the dissociation of previously bound antigenic peptide. […] The AE101 series peptides thus inhibit antigenic peptide-specific T cell responses in the “peptide prepulse” assays.\nAntigenic peptide-specific T cell activation was measured by the following procedure. Mitomycin C-treated A20 cells (A^dE^d) or CH27 cells APC (A^kE^k) were generated by incubating 5×10^6 cells/mL for 20 min at 37° C. with 0.025 mg/mL of mitomycin C (Sigma) in Dulbecco's Modified Eaglel's Medium (DMEM)/10 mM N-2(hydroxyethylpiperazine-N″[2-ethanesulfonic acid] (HEPES), followed by two washes with four volumes of DMEM-5% fetal calf serum (FCS), 10 mM HEPES. Fixed APC were generated by treating 1×10^6 cells/mL for 5 min with 0.5% paraformaldehyde in PBS (pH 7.2), followed by two washes with four volumes of DMEM-10% FCS, 10 mM HEPES. T cell hybridomas were irradiated 2200 rads before each assay.\nThe “peptide prepulse assay” was carried out under essentially the same conditions as described for the “simultaneous assay” with the following modifications. Fixed APC were first incubated for 6 h at 1×10^6 cells/mL in complete DMEM-5% FCS in 24-well microculture plates (1 mL/well) with antigenic peptide, followed by four washes with 10 volumes of DMEM-5% FCS. The cells were then exposed to varying concentrations of AE101 series peptide (64 μM, 16 μM, 4 μM, and 1 μM) for 24 h in the presence of the T cell hybridoma specific to the antigenic peptide. Interleukin release from these cultures was measured by proliferation of HT-2 cells to interleukins in supernatants transferred from the primary culture. Generally, a single dose of 64 μM of each AE101 series peptide was used. The baseline T cell response was measured by culturing T hybridoma cells with the antigenic peptide-prepulsed APC in the absence of AE101 series peptides.\nTable 19: Activities of C-terminal truncation analogs of AE101 in an antigenic peptide prepulse assay. […] Paraformaldehyde-treated APC (fixed APC) expressing MHC class II molecules were incubated with antigenic peptide for 6 h (HEL106-116 for E^d and PGCC81-104 for E^k). After this incubation, the prepulsed APC were washed and cultured with T hybridoma cells and AE101 series peptides. The antigenic peptide concentration during the prepulse was 12 μM for Ed and 20 μM for E^k. The AE101 series peptide concentrations were 64 μM for E^d and 16 μM for E^k. […]", "key": {"[1]": {"settings": "Table 25, AE peptide 64 μM, prepulse 2.5 μM antigenic peptide, supernatant 1:10"}, "[2]": {"settings": "Table 26, AE peptide 64 μM, supernatant 1:8"}, "[3]": {"settings": "Table 22, AE peptide 16 μM, prepulse 20 μM antigenic peptide, supernatant 1:2"}, "[4]": {"settings": "Table 24, AE peptide 64 μM, prepulse 0.625 μM antigenic peptide, supernatant 1:8"}, "[5]": {"settings": "AE peptide 16 μM, supernatant 1:2"}, "[6]": {"settings": "Table 20, AE peptide 16 μM, prepulse 20 μM antigenic peptide, supernatant 1:2"}}, "note": "Non-standard residues stand in square brackets, D forms with d. Cit = NC(=O)NCCC[C@H](N)C(=O)O; Orn = NCCC[C@H](N)C(=O)O", "data": [{"substance": "Ac-LRMKLP F-NH2 (Ac-LRMKLPF-NH2) [AE248]", "values": [{"measurement": "Activity in antigenic peptide prepulse assay, E^k (baseline = 1.00)", "setting": "[1]", "value": 0.98}]}, {"substance": "Ac-LRMKLP N-NH2 (Ac-LRMKLPN-NH2) [AE246]", "values": [{"measurement": "Activity in antigenic peptide prepulse assay, E^k (baseline = 1.0)", "setting": "[2]", "value": 0.98}]}, {"substance": "Ac-LRMKLP k-NH2 [AE166]", "values": [{"measurement": "Activity in antigenic peptide prepulse assay, E^k (baseline = 1.00)", "setting": "[3]", "value": 0.15}, {"measurement": "Activity in antigenic peptide prepulse assay, E^k (baseline = 1.00)", "setting": "[4]", "value": 0.83}]}, {"substance": "Ac-LRMKLPK-NH2 [AE114]", "values": [{"measurement": "Activity in antigenic peptide prepulse assay, E^k (baseline = 1.00)", "setting": "[3]", "value": 0.15}, {"measurement": "Activity in antigenic peptide prepulse assay, E^k (baseline = 1)", "setting": "Table 23, as printed: antigenic peptide prepulse 64 μM, AE peptide 1:8 μM, supernatant 1:2", "value": 0.78}, {"measurement": "Activity in antigenic peptide prepulse assay, E^k (baseline = 1.00)", "setting": "[4]", "value": 0.78}, {"measurement": "Activity in antigenic peptide prepulse assay, E^k (baseline = 1.00)", "setting": "[1]", "value": 0.79}, {"measurement": "Activity in antigenic peptide prepulse assay, E^k (baseline = 1.0)", "setting": "[2]", "value": 0.98}, {"measurement": "T cell response relative to baseline without AE peptide (None = 1.0), E^k", "setting": "Table 27, antigenic peptide prepulse 1.25 μM, AE101 series peptide 64 μM, HT-2 supernatant dilution 1:8", "value": 0.69}, {"measurement": "Activity in antigenic peptide prepulse assay, E^k (baseline = 1.0)", "setting": "Table 28, AE peptide 64 μM, supernatant 1:4", "value": 0.78}]}, {"substance": "Ac-LRMKLPKPPK-NH2 [AE168]", "values": [{"measurement": "Activity in antigenic peptide prepulse assay, E^k (baseline without AE peptide = 1.00)", "setting": "[5]", "value": 0.01}]}, {"substance": "Ac-LRMKLPKPPP-NH2 [AE167]", "values": [{"measurement": "Activity in antigenic peptide prepulse assay, E^k (baseline without AE peptide = 1.00)", "setting": "[5]", "value": 0.01}]}, {"substance": "Ac-LRMKLP[Cit]-NH2 [AE241]", "values": [{"measurement": "Activity in antigenic peptide prepulse assay, E^k (baseline = 1.0)", "setting": "[2]", "value": 0.99}]}, {"substance": "Ac-LRNKNPF-NH2 [AE348]", "values": [{"measurement": "Activity in antigenic peptide prepulse assay, E^k (baseline = 1.00)", "setting": "[1]", "value": 0.72}]}, {"substance": "Ac-LRNKNPK-NH2 [AE349]", "values": [{"measurement": "Activity in antigenic peptide prepulse assay, E^k (baseline = 1.00)", "setting": "[1]", "value": 0.81}]}, {"substance": "Ac-LR[Orn]KLPK-NH2 [AE195]", "values": [{"measurement": "Activity in antigenic peptide prepulse assay, E^k (baseline = 1.00)", "setting": "[1]", "value": 0.74}]}, {"substance": "Ac-L[Cit]MKNPK-NH2 [AE342]", "values": [{"measurement": "Activity in antigenic peptide prepulse assay, E^k (baseline = 1.00)", "setting": "[1]", "value": 1.10}]}, {"substance": "Ac-L[Cit]NKLPK-NH2 [AE343]", "values": [{"measurement": "Activity in antigenic peptide prepulse assay, E^k (baseline = 1.00)", "setting": "[1]", "value": 0.90}]}, {"substance": "Ac-Y D MKLPKSAK-NH2 [AE135]", "values": [{"measurement": "Activity in antigenic peptide prepulse assay, E^k (baseline = 1.00)", "setting": "[6]", "value": 0.95}]}, {"substance": "Ac-Y E MKLPKSAK-NH2 [AE136]", "values": [{"measurement": "Activity in antigenic peptide prepulse assay, E^k (baseline = 1.00)", "setting": "[6]", "value": 0.97}]}, {"substance": "Ac-Y F MKLPKSAK-NH2 [AE139]", "values": [{"measurement": "Activity in antigenic peptide prepulse assay, E^k (baseline = 1.00)", "setting": "[6]", "value": 0.38}]}, {"substance": "Ac-Y H MKLPKSAK-NH2 [AE133]", "values": [{"measurement": "Activity in antigenic peptide prepulse assay, E^k (baseline = 1.00)", "setting": "[6]", "value": 0.86}]}, {"substance": "Ac-Y K MKLPKSAK-NH2 [AE134]", "values": [{"measurement": "Activity in antigenic peptide prepulse assay, E^k (baseline = 1.00)", "setting": "[6]", "value": 0.43}, {"measurement": "Activity in antigenic peptide prepulse assay, E^k (baseline = 1.0)", "setting": "[2]", "value": 0.98}]}, {"substance": "Ac-Y L MKLPKSAK-NH2 [AE142]", "values": [{"measurement": "Activity in antigenic peptide prepulse assay, E^k (baseline = 1.00)", "setting": "[6]", "value": 0.46}]}, {"substance": "Ac-Y M MKLPKSAK-NH2 [AE141]", "values": [{"measurement": "Activity in antigenic peptide prepulse assay, E^k (baseline = 1.00)", "setting": "[6]", "value": 0.52}]}, {"substance": "Ac-Y N MKLPKSAK-NH2 [AE137]", "values": [{"measurement": "Activity in antigenic peptide prepulse assay, E^k (baseline = 1.00)", "setting": "[6]", "value": 0.72}]}, {"substance": "Ac-Y Q MKLPKSAK-NH2 [AE138]", "values": [{"measurement": "Activity in antigenic peptide prepulse assay, E^k (baseline = 1.00)", "setting": "[6]", "value": 0.85}]}, {"substance": "Ac-Y Y MKLPKSAK-NH2 [AE140]", "values": [{"measurement": "Activity in antigenic peptide prepulse assay, E^k (baseline = 1.00)", "setting": "[6]", "value": 0.79}]}, {"substance": "Ac-YAMKLPKSAK-NH2 [AE121]", "values": [{"measurement": "Activity in antigenic peptide prepulse assay, E^k (baseline = 1.00)", "setting": "[6]", "value": 0.59}]}, {"substance": "Ac-YRM-NH2 [AE118]", "values": [{"measurement": "Activity in antigenic peptide prepulse assay, E^k (baseline without AE peptide = 1.00)", "setting": "[5]", "value": 0.35}]}, {"substance": "Ac-YRMK-NH2 [AE117]", "values": [{"measurement": "Activity in antigenic peptide prepulse assay, E^k (baseline without AE peptide = 1.00)", "setting": "[5]", "value": 0.09}]}, {"substance": "Ac-YRMKL hydrP KSAK-NH2 (Ac-YRMKL[hydrP]KSAK-NH2) [AE143]", "values": [{"measurement": "Activity in antigenic peptide prepulse assay, E^k (baseline = 1.00)", "setting": "Table 21, AE peptide 16 μM, prepulse 20 μM antigenic peptide, supernatant 1:2", "value": 0.10}]}, {"substance": "Ac-YRMKL-NH2 [AE116]", "values": [{"measurement": "Activity in antigenic peptide prepulse assay, E^k (baseline without AE peptide = 1.00)", "setting": "[5]", "value": 0.10}]}, {"substance": "Ac-YRMKLP-NH2 [AE115]", "values": [{"measurement": "Activity in antigenic peptide prepulse assay, E^k (baseline without AE peptide = 1.00)", "setting": "[5]", "value": 0.07}]}, {"substance": "Ac-YRMKLPK-NH2 [AE113]", "values": [{"measurement": "Activity in antigenic peptide prepulse assay, E^k (baseline without AE peptide = 1.00)", "setting": "[5]", "value": 0.04}]}]}
